In US7365069B2, “Pyrimidone derivatives” (Bexel Pharmaceuticals Inc., priority 2002, dated 2008):

Experiments:
[1] = test system: Male Wistar rats; test: Rat carrageenan paw edema test; assay type: in vivo; conditions: 5 mg/kg body weight, oral, paw volume 3 hours after carrageenan, read-out: Rat Paw Edema model % inhibition
Description: Rat Carrageenan Paw Edema Test
The carrageenan paw edema test is performed as described by Winter et al (Proc. Soc. Exp. Biol. Med, 111, 544, 1962). Male Wistar rats are selected and the body weights are equivalent within each group. The rats are fasted for eighteen hours with free access to water. The rats are dosed orally with the test compound suspended in vehicle containing 0.5% methylcellulose. The control rats are administered the vehicle alone. After an hour, the rats are injected with 0.1 ml of 1% Carrageenan solution in 0.9% saline into the sub-plantar surface of the right hind paw. Paw volume is measured using water plethysmograph before and after 3 hours of carrageenan injection. The average of foot swelling in drug treated animals is compared with that of control animals. Anti-inflammatory activity is expressed as the percentage inhibition of edema compared with control group [Arzneim-Forsch/Drug Res., 43(I), 1, 44-50,1993; Ottemess and Bliven, Laboratory Models for Testing NSAIDs, In Non-Steroidal Anti-Inflammatory Drugs, (J. Lombardino, ed. 1985)]. In order to evaluate their role on the ulcer formation, the animals are sacrificed and the stomach is taken out and flushed with 1% formalin. The stomach is opened along the greater curvature. The haemorrhagic puncta and sulci are identified microscopically and images are captured. The stomach lesions are calculated.

[2] = molecular target: T1, COX-2 (Homo sapiens, UniProt P35354); test: Human whole blood assay, COX-2 inhibition (PGE2 ELISA after LPS); assay type: cell-based; conditions: LPS 24 h
T1 construct: incubation of human blood with lipopolysaccharide (LPS), which induces COX-2 production in the blood; endogenous in cells; host or cells: fresh human whole blood from volunteers, treated with aspirin and then LPS
T1 sequence (P35354 18-604): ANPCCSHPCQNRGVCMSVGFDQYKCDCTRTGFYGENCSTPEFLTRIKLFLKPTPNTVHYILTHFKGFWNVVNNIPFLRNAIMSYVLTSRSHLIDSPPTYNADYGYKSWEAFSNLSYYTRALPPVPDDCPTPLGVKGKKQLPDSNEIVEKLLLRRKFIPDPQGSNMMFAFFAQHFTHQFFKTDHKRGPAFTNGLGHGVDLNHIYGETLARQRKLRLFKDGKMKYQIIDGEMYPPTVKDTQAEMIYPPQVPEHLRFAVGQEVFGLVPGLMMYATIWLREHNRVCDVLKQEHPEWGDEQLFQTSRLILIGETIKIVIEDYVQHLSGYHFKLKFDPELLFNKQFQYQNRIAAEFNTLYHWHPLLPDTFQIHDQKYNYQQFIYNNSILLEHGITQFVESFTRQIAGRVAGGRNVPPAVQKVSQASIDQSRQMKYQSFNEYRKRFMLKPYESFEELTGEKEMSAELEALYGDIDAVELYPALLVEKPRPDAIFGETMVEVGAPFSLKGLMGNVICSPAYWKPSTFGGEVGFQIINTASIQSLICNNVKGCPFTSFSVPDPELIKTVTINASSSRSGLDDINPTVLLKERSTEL
Description: In Vivo Evaluation of Cyclooxygenase-2 (COX-2) Inhibition Activity
The COX-2 inhibition activities of the compounds illustrated in the examples are determined by the following method.
Human whole blood provides a protein and cell rich milieu appropriate for the study of biochemical efficacy of anti-inflammatory compounds such as selective COX-2 inhibitors. […] This is correlating with the observation that COX-2 inhibitors have no effect on prostaglandin E2 (PGE2) production in normal blood. These inhibitors are active only after incubation of human blood with lipopolysaccharide (LPS), which induces COX-2 production in the blood.
Fresh blood is collected in tubes containing potassium EDTA by vein puncture from make volunteers. The subjects should have no apparent inflammatory conditions and not taken NSAIDs for at least 7 days prior to blood collection. Blood is treated with aspirin in vitro (10 μg/ml, at time zero) to inactivate COX-1, and then with LPS (10 μg/ml) along with test agents or vehicle. The blood is incubated for 24 h at 37° C., after which the tubes are centrifuged, the plasma is separated and stored at −80° C. (J. Pharmacol. Exp. Ther, 271, 1705, 1994; Proc. Natl. Acad. Sci. USA., 96, 7563, 1999). The plasma is assayed for PGE2 using Cayman ELISA kit as per the procedure outlined by the manufacturer (Cayman Chemicals, Ann Arbor, USA).

[3] = test system: TNF-α; test: TNF-α production in LPS-stimulated human whole blood; assay type: cell-based; conditions: LPS 4 h
Description: Tumor Necrosis Factor Alpha (TNF-α)
This assay determines the effect of test compounds on the production of TNF-α in human whole blood. TNF-α assay is carried out as described by Armin hatzelmann and Christian Schudt (J Pharm Exp Ther 297, 261, 2001). Compounds are tested for their ability to inhibit the activity of TNF-α in human whole blood. The test compounds are pre-incubated for 15 minutes at 37° C. and then stimulated with Lipopolysaccharide (Salmonella abortus equi, 1 μg/ml) for 4 h at 37° C. in 5% CO2. The levels of TNF-α are estimated using Enzyme linked Immunosorbent assay performed in a 96 well format as per the procedure of the manufacturer (Cayman Chemical, Ann Arbor, USA).

[4] = test system: IL-6; test: IL-6 production in LPS-stimulated human whole blood; assay type: cell-based; conditions: LPS 4 h
Description: This assay determines the effect of test compounds on the production of IL-6 from human whole blood. Compounds are tested for their ability to downregulate the production of IL-6 in activated whole blood. The test compounds are pre-incubated for 15 minutes at 37° C. and then stimulated with Lipopolysaccharide (Salmonella abortus equi, 1 μg/ml) for 4 h at 37° C. in 5% CO2. The levels of Interleukin-6 are estimated using Enzyme linked Immunosorbent assay performed in a 96 well format as per the procedure of the manufacturer (Cayman Chemical, Ann Arbor, USA).

[5] = test system: NCI-H460; test: DTP human tumor cell line one-dose prescreen, NCI-H460; assay type: cell-based; conditions: 48 hours, Alamar Blue, test/control, read-out: Percentage growth Lung NCI-H460
Description: (§1) DTP Human Tumor Cell Line Screen
(§2) Methodology of the In Vitro Cancer Screen
(§3) The current assay utilizes a 384 well plate format and fluorescent staining technologies resulting in greater screening capacity for testing of synthetic samples.
(§4) The cell lines of the cancer-screening panel are grown in RPMI 1640 medium containing 5% fetal bovine serum and 2 mM L-glutamine. For a typical screening experiment, cells are inoculated into 96 well microtiter plates in 100 μL. After cell inoculation, the microtiter plates are incubated at 37° C., 5% CO2, 95% air and 100% relative humidity for 24 h prior to addition of experimental drugs. The cells are plated a densities of 5000 cells/well (MCF7), 1000 cells/well (NC1—H460), and 7500 cells/well (SF-268) to allow for varying doubling time of the cell lines. Each plate contains all three cell lines, a series of dilutions of standard agents, total kill wells and appropriate controls. Plates are incubated under standard conditions for 24 hours prior to addition of experimental compounds or extracts.
(§5) Addition of Experimental Agents (Pure Compounds)
(§6) Experimental compounds are solubilized in dimethyl sulfoxide (DMSO) at 400-times the desired maximum test concentration (maximum final DMSO concentration of 0.25%) and stored frozen. Compounds are then diluted with complete media with 0.1% gentamicin sulfate (5 μl of test sample in 100% DMSO is added to 565 μl of complete medium). 20 μl of this solution is then dispensed into test wells containing 50 μl of cell suspension to yield a test concentration of 1.00E-04M.
(§7) Two standard drugs, meaning that their activities against the cell lines are well documented, are tested against each cell line: NSC 19893 (5-FU) and NSC 123127 (Adriamycin).
(§8) After compound addition, plates are incubated at standard conditions for 48 hours, 10 μl/well Alamar Blue is added and the plates are incubated for an additional 4 hours. Fluorescence is measured using an excitation wavelength of 530 nm and an emission wavelength of 590 nm.
(§9) Calculation of Percent Test Cell Growth/Control (Untreated) Cell Growth (T/C)
(§10) Percent growth is calculated on a plate-by-plate basis for test wells relative to control wells. Percent Growth is expressed as the ratio of fluorescence of the test well to the average fluorescence of the control wells x 100.

[6] = test system: MCF-7; test: DTP human tumor cell line one-dose prescreen, MCF-7; assay type: cell-based; conditions: MCF7, 48 hours, Alamar Blue, test/control, read-out: Percentage growth Breast MCF-7
Description: as §1, §2, §3, §4, §5, §6, §7, §8, §9, §10

[7] = test system: SF-268; test: DTP human tumor cell line one-dose prescreen, SF-268; assay type: cell-based; conditions: 48 hours, Alamar Blue, test/control, read-out: Percentage growth CNS SF-268
Description: as §1, §2, §3, §4, §5, §6, §7, §8, §9, §10

inhibition at 0.25 µM [2] [%]	melting point [°C]	Compound	inhibition at 0.25 µM [4] [%]	activity at 100 µM [5] [%]	activity at 100 µM [6] [%]	also measured
31.1	211 to 212	CSc1nc(-c2ccc(S(C)(=O)=O)cc2)n(-c2ccc(C(C)C)cc2)c(=O)c1C#N [Example 11, 5-cyano-1-(4-isopropylphenyl)-2-[4-(methylsulfonyl)phenyl]-4-(methylthio)-6-oxo-1,6-dihydropyrimidine]	70.8	–	–	inhibition in vivo at 5 mg/kg [1]: 63.8%; inhibition at 0.25 µM [3]: 63.8%
72.1	268 to 271	CNc1nc(-c2ccc(SC)cc2)n(-c2ccc(C)cc2)c(=O)c1C#N [Example 54, 5-cyano-4-(methylamino)-1-(4-methylphenyl)-2-[4-(methylthio)phenyl]-6-oxo-1,6-dihydropyrimidine]	–	–	–	inhibition at 1 µM [3]: 15.6%; inhibition at 1 µM ([4]; 1 μM): 15.5%
–	221 to 227	CSc1nc(-c2ccccn2)n(-c2ccc(F)cc2)c(=O)c1C#N [Example 29, 5-cyano-1-(4-fluorophenyl)-4-(methylthio)-6-oxo-2-pyridin-2-yl-1,6-dihydropyrimidine]	–	23	80	activity at 100 µM [7]: 92%
–	166 to 169	CCOC(=O)c1c(SC)nc(-c2ccc(F)cc2)n(-c2ccc(SC)cc2)c1=O [Example 43, ethyl 2-(4-fluorophenyl)-4-(methylthio)-1-[4-(methylthio)phenyl]-6-oxo-1,6-dihydropyrimidine-5-carboxylate]	10.4	79	68	inhibition at 1 µM ([2]; 1 μM): 27.5%; inhibition at 1 µM [3]: 36.4%
–	151 to 155	CCOC(=O)c1c(SC)nc(-c2ccc(SC)cc2)n(-c2ccc(F)cc2)c1=O [Example 42, ethyl 1-(4-fluorophenyl)-4-(methylthio)-2-[4-(methylthio)phenyl]-6-oxo-1,6-dihydropyrimidine-5-carboxylate]	–	–	–	inhibition at 0.1 µM ([2]; 0.1 μM): 37.6%; inhibition at 0.1 µM ([3]; 0.1 μM): 49.6%; inhibition at 0.1 µM ([4]; 0.1 μM): 59.7%
–	214 to 216	COc1ccc(-n2c(-c3ccc(SC)cc3)nc(SC)c(C#N)c2=O)cc1 [Example 16, 5-cyano-1-(4-methoxyphenyl)-4-(methylthio)-2-[4-(methylthio)phenyl]-6-oxo-1,6-dihydropyrimidine]	–	95	90	inhibition at 10 µM [3]: 59.8%
36.5	245 to 247	CSc1nc(-c2ccc(S(C)(=O)=O)cc2)n(-c2ccc(C)c(C)c2)c(=O)c1C#N [Example 12, 5-cyano-1-(3,4-dimethylphenyl)-2-[4-(methylsulfonyl)phenyl]-4-(methylthio)-6-oxo-1,6-dihydropyrimidine]	28.7	–	–	inhibition in vivo at 5 mg/kg [1]: 41.2%; inhibition at 0.25 µM [3]: 27.2%
–	227 to 229	CSc1ccc(-n2c(-c3ccncc3)nc(SC)c(C#N)c2=O)cc1 [Example 28, 5-cyano-4-(methylthio)-1-[4-(methylthio)phenyl]-6-oxo-2-pyridin-4-yl-1,6-dihydropyrimidine]	–	20	48	activity at 100 µM [7]: 63%
16.2	204 to 205	CSc1nc(-c2ccccc2)n(-c2ccc(F)cc2)c(=O)c1C#N [Example 17, 5-cyano-1-(4-fluorophenyl)-4-(methylthio)-2-phenyl-6-oxo-1,6-dihydropyrimidine]	16.2	–	–	inhibition at 10 µM [3]: 47.4%
–	212 to 215	CSc1ccc(-n2c(-c3cccnc3)nc(SC)c(C#N)c2=O)cc1 [Example 27, 5-cyano-4-(methylthio)-1-[4-(methylthio)phenyl]-6-oxo-2-pyridin-3-yl-1,6-dihydropyrimidine]	–	14	23	activity at 100 µM [7]: 51%
7.67	230 to 233	CSc1ccc(-n2c(-c3ccc(C)cc3)nc(SC)c(C#N)c2=O)cc1 [Example 20, 5-cyano-2-(4-methylphenyl)-4-(methylthio)-1-[4-(methylthio)phenyl]-6-oxo-1,6-dihydropyrimidine]	–	–	–	inhibition at 1 µM [3]: 61.4%
